Biological target: T1, cloned human MC4R (Homo sapiens, UniProt P32245)
T1 construct: made in house; host or cells: Hi5 insect cells (baculovirus infection); membrane preparation
Assay: Membrane binding assay: competitive inhibition of [125I]NDP-α-MSH binding
Settings: for IC50: read-out: MC4R IC50

[1] = at 10 μM, [125I]NDP-α-MSH displacement

T1 sequence (P32245 whole entry): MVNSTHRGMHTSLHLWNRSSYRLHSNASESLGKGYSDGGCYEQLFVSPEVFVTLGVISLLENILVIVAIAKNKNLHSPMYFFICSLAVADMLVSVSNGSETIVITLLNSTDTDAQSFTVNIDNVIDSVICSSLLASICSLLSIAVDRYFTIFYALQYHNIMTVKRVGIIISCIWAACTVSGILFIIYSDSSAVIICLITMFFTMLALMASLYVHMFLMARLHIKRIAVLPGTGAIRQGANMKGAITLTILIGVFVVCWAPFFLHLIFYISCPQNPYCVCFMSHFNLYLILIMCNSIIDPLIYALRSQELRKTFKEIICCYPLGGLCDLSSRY

SMILES | Displacement Rate (%) (at 10 μM) [1] | IC50 [nM] | inhibition at 10 µM (at 10 μM, [125I]NDP-α-MSH displacement, read-out: Displacement Rate (%) (at 10 μM))
N[C@@H](Cc1ccc(OCc2cccc(Oc3ccccc3)c2)cc1)C(=O)N1CCN(Cc2cccc(Cl)c2Cl)CC1 [Example 193] | +++ (+++ = 91-100) | < 1500 | 
COc1cc(COc2ccc(C[C@H](N)C(=O)N3CCN(Cc4cccc(Cl)c4Cl)CC3)cc2)cc(OC)c1 [Example 194] | +++ (+++ = 91-100) | 1500 to 3000 | 
CC(C)c1ccc(COc2ccc(C[C@H](N)C(=O)N3CCN(Cc4cccc(Cl)c4Cl)CC3)cc2)cc1 [Example 195] | +++ (+++ = 91-100) | < 1500 | 
N[C@@H](Cc1ccc(OCc2ccc(F)cc2F)cc1)C(=O)N1CCN(Cc2cccc(Cl)c2Cl)CC1 [Example 196] | +++ (+++ = 91-100) | < 1500 | 
N[C@@H](Cc1ccc(OCc2cccc(Br)c2)cc1)C(=O)N1CCN(Cc2cccc(Cl)c2Cl)CC1 [Example 197] | +++ (+++ = 91-100) | < 1500 | 
N[C@@H](Cc1ccc(OCc2ccc(-c3ccccc3)cc2)cc1)C(=O)N1CCN(Cc2cccc(Cl)c2Cl)CC1 [Example 198] | +++ (+++ = 91-100) | < 1500 | 
N[C@@H](Cc1ccc(OCc2cc(C(F)(F)F)cc(C(F)(F)F)c2)cc1)C(=O)N1CCN(Cc2cccc(Cl)c2Cl)CC1 [Example 199] | +++ (+++ = 91-100) | 1500 to 3000 | 
N[C@@H](Cc1ccc(OCc2ccc(Cl)cc2Cl)cc1)C(=O)N1CCN(Cc2cccc(Cl)c2Cl)CC1 [Example 200] | +++ (+++ = 91-100) | < 1500 | 
CC(C)(C)c1ccc(COc2ccc(C[C@H](N)C(=O)N3CCN(Cc4cccc(Cl)c4Cl)CC3)cc2)cc1 [Example 201] | +++ (+++ = 91-100) | < 1500 | 
Cc1ccc(C)c(COc2ccc(C[C@H](N)C(=O)N3CCN(Cc4cccc(Cl)c4Cl)CC3)cc2)c1 [Example 202] | +++ (+++ = 91-100) | 1500 to 3000 | 
COc1cccc(COc2ccc(C[C@H](N)C(=O)N3CCN(Cc4cccc(Cl)c4Cl)CC3)cc2)c1 [Example 203] | +++ (+++ = 91-100) | 1500 to 3000 | 
N[C@@H](Cc1ccc(OCc2ccc(Cl)c(Cl)c2)cc1)C(=O)N1CCN(Cc2cccc(Cl)c2Cl)CC1 [Example 204] | +++ (+++ = 91-100) | < 1500 | 
N[C@@H](Cc1ccc(OCc2c(F)cccc2F)cc1)C(=O)N1CCN(Cc2cccc(Cl)c2Cl)CC1 [Example 205] | +++ (+++ = 91-100) | 1500 to 3000 | 
N[C@@H](Cc1ccc(OCc2cccc(OCc3ccccc3)c2)cc1)C(=O)N1CCN(Cc2cccc(Cl)c2Cl)CC1 [Example 206] | +++ (+++ = 91-100) | < 1500 | 
N[C@@H](Cc1ccc(OCc2ccc(OCc3ccccc3)cc2)cc1)C(=O)N1CCN(Cc2cccc(Cl)c2Cl)CC1 [Example 208] | +++ (+++ = 91-100) | 1500 to 3000 | 
CCOc1ccc(COc2ccc(C[C@H](N)C(=O)N3CCN(Cc4cccc(Cl)c4Cl)CC3)cc2)cc1 [Example 209] |  | 1500 to 3000 | 91 to 100
N[C@@H](Cc1ccc(OCc2ccccc2Cl)cc1)C(=O)N1CCN(Cc2cccc(Cl)c2Cl)CC1 [Example 210] | +++ (+++ = 91-100) | 1500 to 3000 | 
N[C@@H](Cc1ccc(OCc2cc(Cl)ccc2Cl)cc1)C(=O)N1CCN(Cc2cccc(Cl)c2Cl)CC1 [Example 212] | +++ (+++ = 91-100) | < 1500 | 
Cc1cccc(COc2ccc(C[C@H](N)C(=O)N3CCN(Cc4cccc(Cl)c4Cl)CC3)cc2)c1 [Example 213] | +++ (+++ = 91-100) | < 1500 | 
N[C@@H](Cc1ccc(OCc2ccccc2-c2ccccc2)cc1)C(=O)N1CCN(Cc2cccc(Cl)c2Cl)CC1 [Example 214] | +++ (+++ = 91-100) | < 1500 | 
N[C@@H](Cc1ccc(OCc2ccccc2Cc2ccccc2)cc1)C(=O)N1CCN(Cc2cccc(Cl)c2Cl)CC1 [Example 215] | +++ (+++ = 91-100) | < 1500 | 
Cc1ccccc1COc1ccc(C[C@H](N)C(=O)N2CCN(Cc3cccc(Cl)c3Cl)CC2)cc1 [Example 216] | +++ (+++ = 91-100) | 1500 to 3000 | 
N[C@@H](Cc1ccc(OCc2ccc3ccccc3c2)cc1)C(=O)N1CCN(Cc2cccc(Cl)c2Cl)CC1 [Example 217] | +++ (+++ = 91-100) | < 1500 | 

SMILES | Displacement Rate (%) (at 10 μM) [1] | IC50 [nM] | inhibition at 10 µM (at 10 μM, [125I]NDP-α-MSH displacement, read-out: Displacement Rate (%) (at 10 μM))
N[C@@H](Cc1ccc(OCc2cccc3ccccc23)cc1)C(=O)N1CCN(Cc2cccc(Cl)c2Cl)CC1 [Example 218] | +++ (+++ = 91-100) | 1500 to 3000 | 
N[C@@H](Cc1ccc(OCc2ccc(Cl)c([N+](=O)[O-])c2)cc1)C(=O)N1CCN(Cc2cccc(Cl)c2Cl)CC1 [Example 219] | +++ (+++ = 91-100) | < 1500 | 
CCc1ccc(COc2ccc(C[C@H](N)C(=O)N3CCN(Cc4cccc(Cl)c4Cl)CC3)cc2)cc1 [Example 220] | +++ (+++ = 91-100) | < 1500 | 
CCOc1ccccc1COc1ccc(C[C@H](N)C(=O)N2CCN(Cc3cccc(Cl)c3Cl)CC2)cc1 [Example 221] | +++ (+++ = 91-100) | 1500 to 3000 | 
N[C@@H](Cc1ccc(OCc2c(F)cccc2Cl)cc1)C(=O)N1CCN(Cc2cccc(Cl)c2Cl)CC1 [Example 222] | +++ (+++ = 91-100) | 1500 to 3000 | 
N[C@@H](Cc1ccc(OCc2ccc([N+](=O)[O-])cc2)cc1)C(=O)N1CCN(Cc2cccc(Cl)c2Cl)CC1 [Example 223] | +++ (+++ = 91-100) | 1500 to 3000 | 
CSc1ccc(COc2ccc(C[C@H](N)C(=O)N3CCN(Cc4cccc(Cl)c4Cl)CC3)cc2)cc1 [Example 224] | ++ (++ = 71-90) | 1500 to 3000 | 
COc1ccc(COc2ccc(C[C@H](N)C(=O)N3CCN(Cc4cccc(Cl)c4Cl)CC3)cc2)cc1 [Example 225] | ++ (++ = 71-90) | > 3000 | 
N[C@@H](Cc1ccc(OCc2c(Cl)cccc2Cl)cc1)C(=O)N1CCN(Cc2cccc(Cl)c2Cl)CC1 [Example 226] | ++ (++ = 71-90) | 1500 to 3000 | 
COc1ccc(OC)c(COc2ccc(C[C@H](N)C(=O)N3CCN(Cc4cccc(Cl)c4Cl)CC3)cc2)c1 [Example 227] | ++ (++ = 71-90) | > 3000 | 
COc1ccc(COc2ccc(C[C@H](N)C(=O)N3CCN(Cc4cccc(Cl)c4Cl)CC3)cc2)c(OC)c1 [Example 228] | ++ (++ = 71-90) | > 3000 | 
N[C@@H](Cc1ccc(OCc2cc3c(cc2[N+](=O)[O-])OCO3)cc1)C(=O)N1CCN(Cc2cccc(Cl)c2Cl)CC1 [Example 229] | ++ (++ = 71-90) | > 3000 | 
CCCCOc1ccc(COc2ccc(C[C@H](N)C(=O)N3CCN(Cc4cccc(Cl)c4Cl)CC3)cc2)cc1 [Example 230] | ++ (++ = 71-90) | 1500 to 3000 | 
COc1ccccc1COc1ccc(C[C@H](N)C(=O)N2CCN(Cc3cccc(Cl)c3Cl)CC2)cc1 [Example 231] | ++ (++ = 71-90) | > 3000 | 
N[C@@H](Cc1ccc(OCc2c3ccccc3cc3ccccc23)cc1)C(=O)N1CCN(Cc2cccc(Cl)c2Cl)CC1 [Example 232] | ++ (++ = 71-90) | > 3000 | 
COc1cccc(COc2ccc(C[C@H](N)C(=O)N3CCN(Cc4cccc(Cl)c4Cl)CC3)cc2)c1OC [Example 233] | + (+ = 35-70) | > 3000 | 
COc1ccc(COc2ccc(C[C@H](N)C(=O)N3CCN(Cc4cccc(Cl)c4Cl)CC3)cc2)cc1OC [Example 234] | + (+ = 35-70) | > 3000 | 
N[C@@H](Cc1ccc(OCc2ccc3c(c2)OCO3)cc1)C(=O)N1CCN(Cc2cccc(Cl)c2Cl)CC1 [Example 235] | + (+ = 35-70) | > 3000 | 
COc1cc(COc2ccc(C[C@H](N)C(=O)N3CCN(Cc4cccc(Cl)c4Cl)CC3)cc2)cc(OC)c1OC [Example 236] | + (+ = 35-70) |  | 
Cc1ccccc1CCOc1ccc(C[C@H](N)C(=O)N2CCN(Cc3cccc(Cl)c3Cl)CC2)cc1 [Example 237] | +++ (+++ = 91-100) | < 1500 | 
N[C@@H](Cc1ccc(OCCc2ccccc2)cc1)C(=O)N1CCN(Cc2cccc(Cl)c2Cl)CC1 [Example 238] | +++ (+++ = 91-100) | < 1500 | 
Cc1ccc(CCOc2ccc(C[C@H](N)C(=O)N3CCN(Cc4cccc(Cl)c4Cl)CC3)cc2)cc1 [Example 239] | +++ (+++ = 91-100) | < 1500 | 
